The source of these data is US10350262B2, “MCJ agonists and uses therefor” (priority 2015, dated 2019).

The subject of test [1] is Molm13 cells. Put plainly: Mitochondrial membrane potential by TMRE staining, flow cytometry. Conditions: 22 h. Type of test: cell-based. The method, then:
(§1) FIG. 17A-D provides graphs of results showing MCJ agonist inhibition of AML. FIG. 17A-B show results when Molm13 cells (10^4 cells) were incubated in the presence of medium, TAT-N-MCJ-mts peptide (TAT) (25 μM), MITO-N-MCJ peptide (25 μM), AC220 (2 nM) or the combination of the peptides with AC220. Numbers of viable cells was measured after 3 days. […] The percentage of live cells negative for TMRE (TMREneg) is shown. […] The percentage of live PY1^+ cells is shown.
(§2) Experiments were also performed to assess the effect of MCJ agonists on mitochondrial membrane potential by staining with the TMRE dye. Given the more modest effects observed for TAT-N-MCJ-mts (FIG. 17A-B), 50 μM of this peptide was used in the experiments. […] AML cells are sensitive to the levels of reactive oxygen species (ROS), which are primarily generated in mitochondria as a result of electron leakage from the ETC. It was previously shown that MCJ can interfere with the formation of ETC respiratory supercomplexes [Hatle, K., et al., (2013) Mol Cell boil 33:2302-2314] that are formed to facilitate electron transport between complexes and minimize electron leakage [see Acin-Perez, R. et al., (2008) Mol Cell 32:529-539 and Lapuente-Brun, E. et al., (2013) Science 340:1567-1570]. […] The effect of the MCJ agonists was already observed after 5 h of treatment. […]

The subject of test [2] is MCF7/ADR cells. Nature of the test: Seahorse MitoStress assay, oxygen consumption rate (OCR). Type of test: cell-based, human. How it is done:
FIG. 14A-C provides graphs showing effect of MCJ agonist polypeptides on OCR and respiratory capacity of cells. […] Cells pretreated with medium alone (medium), TAT-N-MCJ-mts peptide (TAT peptide) (50 μM) (FIG. 14A) or MITO-N-MCJ peptide (Mito peptide) (25 μM) (FIG. 14B) for the last 9 h prior to the MitoStress assay as described elsewhere herein. Standard flow chart for the treatments as recommended by the manufacturer (Seahorse Bioscience, Billerica, Mass.) was used: oligomycin (O), FCCP (F) and rotenone and antimycin (R+A). […] Oligomycin was replaced by vehicle (buffer) or MITO-N-MCJ peptide.
Human breast cancer cell lines MCF7 cells with siRNA-mediated knockdown of MCJ (MCF7/siMCJ cells) have increased Complex I activity. Experiments were performed to examine the effect of MCJ on mitochondrial respiration using the Seahorse X24 analyzer and the MitoStress assay (used in examples herein according to manufacturer's protocols) that measures mitochondrial oxygen consumption rate (OCR), a well-accepted proxy for mitochondrial respiration (Seahorse Bioscience, North Billerica, Mass.). […] In addition, maximum respiratory capacity (determined after addition of the mitochondrial uncoupler FCCP) was also drastically higher in MCF7/siMCJ cells (FIG. 12A). Moreover, Seahorse MitoStress analysis of OCR in primary mammary tumor cells from MMTV-Py mice [Guy, C.
The agonist polypeptides were tested to determine whether they would restore particular MCJ functions and the effect of the agonist polypeptides in mitochondrial respiration was examined. […] OCR was determined by the Seahorse analyzer in MCF7/ADR cells and MCF7/ADR cells that were pretreated with the TAT-N-MCJ-mts peptide for 9 h.
Assays were performed to examine the effect of MITO-N-MCJ peptide on mitochondrial respiration when added directly on cells ongoing Seahorse mito-stress analysis. In this case, OCR was first measured at the basal level and then either vehicle (Seahorse buffer) or the MITO-N-MCJ peptide was added in one of the ports from Seahorse. […]

Test [3] has as its system Molm13 cells. Nature of the test: Mitochondrial ROS (mROS) by PY1 staining, flow cytometry. Conditions: 22 h. Type of test: cell-based. How it is done:
as §1, §2
In general terms: Flow cytometry measures light scatter and fluorescence of single cells or particles in a stream.

Test [4] relates to Molm13 cells. Nature of the test: Viable cell number of Molm13 AML cells. Type of test: cell-based. As to conditions: 3 days.
In test [5] the test system is MCF7 cells. Nature of the test: Viable cell count of MCF7 cells (Trypan blue). Conditions: 25 μM, 2 days. The test is classed as cell-based, human. The text has this:
(§3) FIG. 15A provides results of Western blot analysis for MCJ in MCF7 cells and MCF7/ADR (ADR) cells. Actin was used as loading control. […] Viable cells were counted 2 days later.
(§4) Cell Culture. MCF7 and MCF7/ADR cells were a kind gift from Dr. Ken Cowan (National Cancer Institute, Bethesda, Md.). MCF7/siMCJ cells were generated by stable transfection with a plasmid expressing a shRNA for MCJ (siMCJ) as described in Hatle, K. M., et al., Mol Cell Biol 27, 2952-2966 (2007). All cells were maintained at 37 C, 5% CO2 in RPMI-1640 (Life technologies, Inc., Gaithersburg, Md.) containing 5% FBS.
(§5) Cell count. Cells were trypsinized, washed, and resuspended in medium. Number of viable cells was measured by counting using Trypan blue dye to exclude dead cells (visualized as blue).
(§6) Doxorubicin and peptides treatment in vitro. Doxorubicin (Sigma-Aldrich) was used at 3 μM final concentration. The three different peptides described in the examples (SEQ ID NO: 2, 18 or 6) were resuspended at 10 mM stock concentration in PBS. The peptides were used a different concentration as indicated for each example (1, 10, or 50 μM). Cells were plated the day prior the treatment (18-20 h prior to the treatment). For treatments with peptides only, peptides were added to the plates at the indicated concentrations, and after 2 or 3 days (as indicated for each example) cells were trypsinized, resuspended, and counted. For the treatment with doxorubicin and peptides, cells were pretreated with the corresponding peptide for 4 h prior to adding doxorubicin.
MCF7 cells and MCF7/ADR cells were incubated (using standard procedures) for two days in media alone or in media that included different concentrations of the TAT-N-MCS-MTS polypeptide having the amino acid sequence set forth as: […]

Test [6] has as its system MCF7/ADR cells. Nature of the test: Viable cell count of MCF7/ADR cells (Trypan blue). Type of test: cell-based, human. The method, then: as §3
FIG. 16A-B provides graphs showing response to MCJ agonists. […] Cells were harvested 2 days later and viable cells were counted. […] Mice were harvested at day 4. The size of a tumor over time was determined by caliper measurements, and is represented as a percentage relative to the initial size prior to the treatment. p<0.05 as determined by a paired t-test.
as §4, §5, §6
MCF7/ADR cells were incubated (using standard procedures) for three days in media alone or in media plus three different MCJ based polypeptides each at a concentration of 50 μM in media. The cells of set one were incubated in media and served as a control set. The cells of set two were incubated in media that included a 50 μM concentration of a MCJ polypeptide without a targeting agent polypeptide. The amino acid sequence of the N-MCJ polypeptide without a targeting agent polypeptide was […] (SEQ ID NO:2). The cells of set three were incubated in media that included a 50 μM concentration of a TAT-N-MCJ polypeptide. The amino acid sequence of the TAT-N-MCJ polypeptide was: […] (SEQ ID NO:18). […]

The subject of test [7] is MCF7/ADR cells. Put plainly: Bright field microscopy of MCF7/ADR cells. The test is classed as cell-based, human. Conditions: 50 μM, two days; relative to medium only. The method, then: FIG. 3 provides photomicrographic images of MCF7/ADR cells that were incubated for two days in column (1) media alone; column (2) media that included a 50 μM concentration of an N-MCJ polypeptide (SEQ ID NO:2); column (3) media that included a 50 μM concentration of the TAT-N-MCJ polypeptide (SEQ ID NO:18); and column (4) media that included a 50 μM concentration of the TAT-N-MCJ-MTS polypeptide (SEQ ID NO:6).
Bright Field Microscopy. Live cells were imaged at an inverted bright field microscope (Leica Microsystems). 400× magnification was used.

Test [8] deals with MCF7/siMCJ cells. Put plainly: Confocal microscopy for doxorubicin accumulation. Type of test: cell-based, human. As to conditions: oligomycin 5 μM with doxorubicin 3 μM, 4 h; vs doxorubicin alone. How it is done:
Confocal microscopy for doxorubicin accumulation. MCF7/siMCJ cells were seeded on BD Biocoat coverslips (BD Biosciences, Bedford, Mass.) the day before the treatment. At 20 h, oligomycin (5 μM) or medium was added to the cell. After 3 h, doxorubicin (3 μM) was added and cells were further incubated for 4 h. Cells were washed with PBS and fixed in 3.7% paraformaldehyde. […] For nuclear staining, DAPI (Molecular Probes, Eugene, Oreg.) was used. Cells were visualized by confocal microscopy (Zeiss LSM 510 META Confocal Laser Scanning Imaging System, Carl Ziess Microimaging Inc, Thronwood, N.Y.). The term: MCF7/siMCJ and siMCJ/MCF7 is used interchangeably herein. Experiments were performed to determine whether reducing mitochondrial respiration in cancer cells restores the cells' sensitivity to chemotherapeutic agents. […] MCF7/siMCJ cells were treated with doxorubicin alone or doxorubicin and oligomycin (an inhibitor of Complex V/ATP synthase) at a concentration of 5 μM for 4 h. Doxorubicin intrinsic fluorescence in the cells was viewed by confocal microscopy. The DAPI dye was used as a nuclear maker.

The mark [9] stands for this setting: 25 μM in combination with AC220 2 nM.

Non-standard residues stand in square brackets, D forms with d. No end group written: not given here. Cha = N[C@@H](CC1CCCCC1)C(=O)O

Regarding “FxRFxKFxRFxKMAARGVIAPVGESLRYAEYL ([Cha]R[Cha]K[Cha]R[Cha]KMAARGVIAPVGESLRYAEYL) [MITO-N-MCJ, Fx is cyclohexylalanine]”, the “mitochondrial membrane potential (TMRE negative live cells)” value in test [1] (setting [9]) was “the most remarkable effect”; in test [1] (25 μM), “caused a loss of mitochondrial membrane potential (TMRE negative cells) in a fraction of Molm13 cells”. Besides, the “effect on OCR” value in test [2] (25 μM, pretreated 9 h, compared with TAT-N-MCJ-mts) was “even more pronounced”. Also, in test [2] (peptide added directly during the assay, OCR measured during 180 min, vs vehicle), the “mitochondrial respiration (OCR)” value was “marked reduction of mitochondrial respiration”. Also, the “maximum respiratory capacity (after FCCP)” value in test [2] (peptide added directly during the assay, vs vehicle only) is reported as “severely compromised”. Besides, the “production of mROS (live PY1+ cells)” value in test [3] (setting [9]) is given as “clearly synergized with AC220 to cause a massive production of mROS”; in test [3] (25 μM), “could induce the production of mROS”. Further, in test [4] (peptide 25 μM alone), the “viability (number of viable cells)” value is given as “profound effect on Molm13 cells, leading to substantial cell death”. Moreover, the “cells refractory to AC220 (number of viable cells)” value in test [4] (peptide 25 μM in combination with AC220 2 nM) is “effectively eliminated this resistant group”. Further, in test [5], the “effect on viable cells” value is “neither of the two MCJ agonists had an effect on MCF7 cells”. The “expansion of cells (viable cells)” value in test [6] (25 μM, peptide by itself, 2 days) is “drastic effect in limiting the expansion of these resistant cells”. In addition, the “efficacy relative to the TAT-N-MCJ peptide” value in test [6] (MITO-N-MCJ greater than TAT peptide) was 2-3 times.

Consider `CC(C)(C)c1cc(NC(=O)Nc2ccc(-c3cn4c(n3)sc3cc(OCCN5CCOCC5)ccc34)cc2)no1` [AC220, reference compound], for which, in test [4] (AC220 2 nM), the “viability (number of viable cells)” value is recorded as “effective at inducing Molm13 cell death”.

“MAARGVIAPVGESLRYAEYL (listed as Homo sapiens) [N-MCJ]”: in test [7], the “proliferation / cells attached to the culture plate (photomicrographs)” value is recorded as “did not affect proliferation of the cells”.

As to “YGKKRRQRRGMAARGVIAPVGESLRYAEYL [TAT-N-MCJ]”, the “proliferation / cells attached to the culture plate (photomicrographs)” value in test [7] was “did not affect proliferation of the cells”. Also, in test [6] (control peptide lacking the mts), the “expansion of cells (viable cells)” value is given as “had no effect”.

Consider `CC[C@H]1/C=C/C=C/C[C@@H](C)[C@H](O)[C@@](C)(O)C(=O)[C@@H](C)[C@H](O)[C@@H](C)C(=O)[C@@H](C)[C@H](O)[C@@H](C)/C=C/C(=O)O[C@@H]2[C@H](C)[C@H](CC1)O[C@]1(CC[C@H](C)[C@H](C[C@@H](C)O)O1)[C@H]2C` [oligomycin], for which the “doxorubicin accumulation (intrinsic fluorescence, nucleus)” value in test [8] was “doxorubicin accumulation (in the nucleus) only in MCF7/siMCJ cells treated with doxorubicin and oligomycin”.
